The target of one test is T1, SlMT3 (Solanum lycopersicum, UniProt D2Y3T9).
T1 sequence (D2Y3T9 1-361): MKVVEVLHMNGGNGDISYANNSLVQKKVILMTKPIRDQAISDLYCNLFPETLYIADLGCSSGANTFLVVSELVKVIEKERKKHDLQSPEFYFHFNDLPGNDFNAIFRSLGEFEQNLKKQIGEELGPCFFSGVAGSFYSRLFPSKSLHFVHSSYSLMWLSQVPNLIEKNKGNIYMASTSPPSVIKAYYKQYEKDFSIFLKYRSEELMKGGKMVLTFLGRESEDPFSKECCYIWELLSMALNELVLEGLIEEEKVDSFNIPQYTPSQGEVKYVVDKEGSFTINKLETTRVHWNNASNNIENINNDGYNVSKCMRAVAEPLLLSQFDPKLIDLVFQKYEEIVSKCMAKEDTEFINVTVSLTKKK
In words: yeast feeding assay, qToF-MS of methylation product. Format: cell-based. The conditions noted are these: 100 uM fed substrate plus endogenous yeast 3-HAA, 72 h, 30 C.

A further test concerns the target T2, AtCHS (Arabidopsis thaliana, UniProt P13114).
T2 sequence (P13114 2-395): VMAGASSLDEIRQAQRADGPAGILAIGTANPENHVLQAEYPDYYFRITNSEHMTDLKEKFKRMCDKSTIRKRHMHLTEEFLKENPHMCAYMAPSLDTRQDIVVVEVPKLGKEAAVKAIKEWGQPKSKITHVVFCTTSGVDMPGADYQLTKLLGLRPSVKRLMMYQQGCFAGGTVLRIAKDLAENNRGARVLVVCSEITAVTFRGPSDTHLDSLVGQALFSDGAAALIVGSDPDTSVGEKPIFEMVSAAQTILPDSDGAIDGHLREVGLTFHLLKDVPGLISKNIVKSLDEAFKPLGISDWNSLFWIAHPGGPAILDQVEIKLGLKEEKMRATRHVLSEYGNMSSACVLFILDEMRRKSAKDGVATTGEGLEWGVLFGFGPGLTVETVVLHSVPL
In words: LC-MS/MS product detection, end point […] h. The note with it: 200 uM p-coumaroyl-CoA, 30 C. In kind it is biochemical.

As for `Nc1c(O)cccc1C(=O)O` [3-HAA], on SlMT3, the “yeast feeding assay, qToF-MS of methylation product” value is reported as “SlMT3 exhibited detectable activity only toward 3-HAA”.

On to `COC(=O)c1cccc(O)c1N` [compound 1, Methyl 2-amino-3-hydroxybenzoate], for which the “LC-MS/MS product detection, end point 4 h” value on AtCHS (200 uM 3-HAA methyl ester, amide synthesis) is “highest production of amide with 3-HAA methyl ester”.

As for `CC(C)(COP(=O)(O)OP(=O)(O)OC[C@H]1O[C@@H](n2cnc3c(N)ncnc32)[C@H](O)[C@@H]1OP(=O)(O)O)[C@@H](O)C(=O)NCCC(=O)NCCSC(=O)CC(=O)O` [malonyl-CoA], the “LC-MS/MS product detection, end point 4 h” value at AtCHS (200 uM malonyl-CoA, naringenin chalcone synthesis) was “its activities on malonyl-CoA and 3-HAA methyl ester were analyzed under the same assay conditions”.
